Measured values from US11117915B2, “Antibacterial aminoglycoside analogs” (Cipla USA, Inc., priority 2007, dated 2021).
In brackets after ≈: the same amount, converted by molar mass.

Tests used:
E. coli ATCC 25922 = assay: MIC assay, CLSI broth microdilution, E. coli ATCC 25922 (AECO001); assay type: cell-based; conditions: Escherichia coli, ATCC25922, 20 h, read-out: MIC AECO001
Outline: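 Bacteria from overnight agar colonies, suspended in saline, added to serial two-fold dilutions in Mueller Hinton Broth at 5×10^5 CFU/mL final. Incubation 35° C., 20 hours, ambient air, per CLSI M7-A7 reference method.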

P. aeruginosa ATCC 27853 = assay: MIC assay, CLSI broth microdilution, P. aeruginosa ATCC 27853 (APAE001); assay type: cell-based; conditions: Pseudomonas aeruginosa, ATCC27853, 20 h, read-out: MIC APAE001
Outline: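 Test compounds were diluted two-fold at 2× strength in Mueller Hinton Broth, then combined 1:1 with saline-suspended bacteria from an overnight agar colony to reach 5×10^5 CFU/mL. Incubation followed at 35° C. for 20 hours in ambient air, per CLSI reference methods.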

## CN[C@@H]1[C@@H](O)[C@@H](O[C@@H]2[C@@H](O)[C@H](O[C@H]3OC(CN)=CC[C@H]3NCC3CCNC3)[C@@H](N)C[C@H]2NC(=O)[C@@H](O)CCN)OC[C@]1(C)O (stereo partly drawn) [Example 84, 2′-(Methyl-pyrrolidin-3-yl)-1-(4-amino-2(S)-hydroxy-butyryl)-sisomicin]
E. coli ATCC 25922
  MIC: < 1 µg/mL
P. aeruginosa ATCC 27853
  MIC: 1 to 16 µg/mL (≈ 1.58 to 25.3 µM)

## CN[C@@H]1[C@@H](O)[C@@H](O[C@@H]2[C@@H](O)[C@H](O[C@H]3OC(CN)=CC[C@H]3NCC3CCCN3)[C@@H](N)C[C@H]2NC(=O)[C@@H](O)CCN)OC[C@]1(C)O (stereo partly drawn) [Example 85, 2′-(Methyl-pyrrolidin-2-yl)-1-(4-amino-2(S)-hydroxy-butyryl)-sisomicin]
E. coli ATCC 25922
  MIC: < 1 µg/mL
P. aeruginosa ATCC 27853
  MIC: 1 to 16 µg/mL (≈ 1.58 to 25.3 µM)

## CNCC(=O)N[C@@H]1CC=C(CN)O[C@@H]1O[C@H]1[C@H](O)[C@@H](O[C@H]2OC[C@](C)(O)[C@H](NC)[C@H]2O)[C@H](NC(=O)[C@@H](O)CCN)C[C@@H]1N [Example 86, 2′-(N-Methyl-amino-acetyl)-1-(4-amino-2(S)-hydroxy-butyryl)-sisomicin]
E. coli ATCC 25922
  MIC: 1 to 16 µg/mL (≈ 1.61 to 25.8 µM)
P. aeruginosa ATCC 27853
  MIC: 1 to 16 µg/mL (≈ 1.61 to 25.8 µM)

## CN[C@@H]1[C@@H](O)[C@@H](O[C@@H]2[C@@H](O)[C@H](O[C@H]3OC(CN)=CC[C@H]3NC(=O)CN)[C@@H](N)C[C@H]2NC(=O)[C@@H](O)CCN)OC[C@]1(C)O [Example 87, 2′-(2-Amino-acetyl)-1-(4-amino-2(S)-hydroxy-butyryl)-sisomicin]
E. coli ATCC 25922
  MIC: 1 to 16 µg/mL (≈ 1.65 to 26.4 µM)
P. aeruginosa ATCC 27853
  MIC: 1 to 16 µg/mL (≈ 1.65 to 26.4 µM)

## CN[C@@H]1[C@@H](O)[C@@H](O[C@@H]2[C@@H](O)[C@H](O[C@H]3OC(CN)=CC[C@H]3NC(=O)C(C)N)[C@@H](N)C[C@H]2NC(=O)[C@@H](O)CCN)OC[C@]1(C)O (stereo partly drawn) [Example 88, 2′-(2-Amino-propionyl)-1-(4-amino-2(S)-hydroxy-butyryl)-sisomicin]
E. coli ATCC 25922
  MIC: 1 to 16 µg/mL (≈ 1.61 to 25.8 µM)
P. aeruginosa ATCC 27853
  MIC: 1 to 16 µg/mL (≈ 1.61 to 25.8 µM)

## CN[C@@H]1[C@@H](O)[C@@H](O[C@@H]2[C@@H](O)[C@H](O[C@H]3OC(CN)=CC[C@H]3NC(=O)C(O)CN)[C@@H](N)C[C@H]2NC(=O)[C@@H](O)CCN)OC[C@]1(C)O (stereo partly drawn) [Example 89, 2′-(3-Amino-2-hydroxy-propionyl)-1-(4-amino-2(S)-hydroxy-butyryl)-sisomicin]
E. coli ATCC 25922
  MIC: < 1 µg/mL
P. aeruginosa ATCC 27853
  MIC: 1 to 16 µg/mL (≈ 1.57 to 25.2 µM)

## CN[C@@H]1[C@@H](O)[C@@H](O[C@@H]2[C@@H](O)[C@H](O[C@H]3OC(CN)=CC[C@H]3NC(=O)C3CCCN3)[C@@H](N)C[C@H]2NC(=O)[C@@H](O)CCN)OC[C@]1(C)O (stereo partly shown) [Example 90]
E. coli ATCC 25922
  MIC: < 1 µg/mL
P. aeruginosa ATCC 27853
  MIC: 1 to 16 µg/mL (≈ 1.55 to 24.8 µM)

## CN[C@@H]1[C@@H](O)[C@@H](O[C@@H]2[C@@H](O)[C@H](O[C@H]3OC(CN)=CC[C@H]3NCCCN)[C@@H](N)C[C@H]2NC(=O)[C@@H](O)CCN)OC[C@]1(C)O [Example 91, 2′-(3-Amino-propyl)-1-(4-amino-2(S)-hydroxy-butyryl)-sisomicin]
E. coli ATCC 25922
  MIC: < 1 µg/mL
P. aeruginosa ATCC 27853
  MIC: < 1 µg/mL

## CN[C@@H]1[C@@H](O)[C@@H](O[C@@H]2[C@@H](O)[C@H](O[C@H]3OC(CN)=CC[C@H]3NC(=O)CC3CNCCO3)[C@@H](N)C[C@H]2NC(=O)[C@@H](O)CCN)OC[C@]1(C)O (stereo partly drawn) [Example 92, 2′-(Morpholin-2-yl-acetyl)-1-(4-amino-2(S)-hydroxy-butyryl)-sisomicin]
E. coli ATCC 25922
  MIC: < 1 µg/mL
P. aeruginosa ATCC 27853
  MIC: > 16 µg/mL

## CN[C@@H]1[C@@H](O)[C@@H](O[C@@H]2[C@@H](O)[C@H](O[C@H]3OC(CN)=CC[C@H]3NS(=O)(=O)CCN)[C@@H](N)C[C@H]2NC(=O)[C@@H](O)CCN)OC[C@]1(C)O [Example 93, 2′-(2-Amino-ethyl-sulfonamide)-1-(4-amino-2(S)-hydroxy-butyryl)-sisomicin]
E. coli ATCC 25922
  MIC: < 1 µg/mL
P. aeruginosa ATCC 27853
  MIC: 1 to 16 µg/mL (≈ 1.52 to 24.4 µM)

## CN[C@@H]1[C@@H](O)[C@@H](O[C@@H]2[C@@H](O)[C@H](O[C@H]3OC(CN)=CC[C@H]3NCC(C)(C)CN(C)C)[C@@H](N)C[C@H]2NC(=O)[C@@H](O)CCN)OC[C@]1(C)O [Example 94, 2′-(N, N-Dimethyl-2,2-dimethyl-3-amino-propyl)-1-(4-amino-2(S)-hydroxy-butyryl)-sisomicin]
E. coli ATCC 25922
  MIC: 1 to 16 µg/mL (≈ 1.51 to 24.2 µM)
P. aeruginosa ATCC 27853
  MIC: > 16 µg/mL
